# The METLIN SMRT retention time set (Domingo-Almenara et al. 2019)
# Test: gradient 5% acetonitrile 3 min, to 50% in 2 min, to 85% in 15 min, held 3 min, 100 µL/min
# Conditions: column: Zorbax Extend-C18 2.1 x 50 mm; eluents: water / acetonitrile, 0.1% formic acid
# Procedure, shortened: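 Standards, all pure, were combined into mixtures of ~100 molecules and run at 100 μL/min on a Zorbax Extend-C18 column (2.1 × 50 mm, 1.8 μm) with water and acetonitrile, each containing 0.1% formic acid. A coupled quadrupole time-of-flight mass spectrometer operated in positive and negative ionization mode. Retention time values come from computationally picked adduct peaks, each inspected manually.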
row,Structure (SMILES),RP-LC retention time [s]
1,CCCCS(=O)(=O)c1cc2c(cc1NC(=O)c1cccc(F)c1)n(C)c(=O)n2C,966
2,CCCNC(=O)c1cn2ccnc(-c3ccc(C)cc3)c2n1,878
3,COc1ccc(-c2cc(C(F)(F)F)n3ncc(C(=O)O)c3n2)cc1,822
4,COCCCNC(=O)CCc1c(-c2ccc(F)cc2)nc2ccccn12,592
5,CCOc1ccccc1CNC(=O)C1CCCN(c2nn3c(=O)c4c(nc3s2)CCCC4)C1 (configuration not stated),831
6,O=C(Nc1ccc(-c2cn3c(C(=O)N4CCCC4)csc3n2)cc1)c1ccccc1,780
7,CCOCC(=O)N1CCC(Oc2nccnc2N2CCOCC2)C1 (configuration not stated),640
8,Cc1ccccc1CNC(=O)CN1CCN(Cc2ccccc2)C1=O,806
9,COc1ccc(-c2cc(N3CCC(NC(=O)c4cccc(C#N)c4)C3)n[nH]2)cc1 (configuration not stated),692
10,O=c1c2nc(-c3ccc(F)cc3)cn2ccn1-c1ccc(F)cc1,795
11,CC(NC(=O)Cn1c(=O)c2cccn2c2ccccc21)c1ccc2c(c1)OCCO2 (configuration not stated),794
12,O=C(NCc1ccccc1)C1CN(S(=O)(=O)c2cccnc2)CC12CCCCC2 (configuration not stated),864
13,CCOc1nc2ccccc2nc1N1CCCC(C(=O)Nc2cccc(C(F)(F)F)c2)C1 (configuration not stated),1370
14,CCOc1cccc(C2CC(c3ccc(Br)cc3)=NC3(CCN(C)CC3)N2)c1O (configuration not stated),649
15,Cc1ccc(-c2nc3cccnc3n2C2CCN(S(=O)(=O)c3cccnc3)C2)cc1 (configuration not stated),728
16,CCOc1ccccc1NC(=O)NC1CCN(c2cc(N3CCCC3)cnn2)C1 (configuration not stated),594
17,CCCNC(=O)C1CCN(c2ccc(SCC(=O)NCc3ccccc3)nn2)CC1,645
18,Cc1cc(-c2ccccc2)nc(Nc2nc(-c3ccccc3)c(CC(=O)O)s2)n1,922
19,CC(C)n1cc(S(=O)(=O)N2CCN(c3ccccc3Cl)CC2)c2cccnc21,761
20,O=C(C1=NN(Cc2cccc(F)c2)c2cc(Cl)ccc2S1(=O)=O)N1CCOCC1,904

row,Structure (SMILES),RP-LC retention time [s]
1,CCc1ccc(-n2nc(N3CCCC(C(=O)NCc4cccc(Br)c4)C3)ccc2=O)cc1 (configuration not stated),991
2,COc1ccc2c(c1)C1(CCN(C(=O)Cc3ccc(OC)c(Cl)c3)C1)C(=O)N2 (configuration not stated),745
3,CCOC(=O)c1cc(S(=O)(=O)N2CCCC2C(=O)NC2CCCC2)cn1C (configuration not stated),732
4,Cc1ccc(N2CCC(NC(=O)NCCc3ccccc3)C2=O)cc1C (configuration not stated),790
5,Fc1ccc(OCc2nc(-c3ccc4c(c3)ncn4CCN3CCCCC3)no2)cc1,654
6,Cc1nnc(-c2cc(NC(=O)c3ccc(C(F)(F)F)cc3)c(C)s2)o1,986
7,O=C(O)c1ccc(Nc2c(-c3cccc(O)c3)nc3cnccn23)cc1,620
8,Fc1ccc(Nc2nc(N3CCOCC3)nc3c2cnn3-c2ccccc2)cc1,1170
9,CCOc1ccccc1NC(=O)C1CCCN(c2nc3ccccc3nc2OCC)C1 (configuration not stated),1320
10,Cc1ccc2[nH]c(=O)c(CCC(=O)NCCc3ccccn3)cc2c1,577
11,COc1cccc(C2Cn3nnc(-c4nc(-c5ccccc5)no4)c3CO2)c1 (configuration not stated),1130
12,O=C(Nc1ccc(F)c(F)c1)c1c(O)c2cccnc2n(Cc2ccccc2)c1=O,1140
13,CCOCCCNC(=O)N1CCN(c2nnc(C)c3c(C)n(-c4ccc(C)cc4)nc23)CC1,669
14,O=C(NC1CC1)c1ccc2ncnc(N3CCCCC3)c2c1,580
15,CCOC(=O)c1nc(Nc2cc(F)ccc2F)c2ccccc2n1,912
16,CN(C)S(=O)(=O)c1ccc(-c2nnc(C(=O)NCc3cccc(Cl)c3)o2)cc1,969
17,Cc1cc(OCC(=O)NCc2cccs2)nc(-c2ccc(F)cc2)n1,885
18,O=c1ccc(S(=O)(=O)N2CCOCC2)cn1Cc1ccc(Cl)cc1,814
19,c1ccc(CCc2nc(-c3ccc4c(c3)nnn4CCN3CCOCC3)no2)cc1,687
20,CN(C)CCNc1ccc(-c2nc(-c3cccc(F)c3)no2)cn1,678

row,Structure (SMILES),RP-LC retention time [s]
1,O=C(CN1CC=C(c2cnn(-c3ccc(F)cc3)c2)CC1)N1CCN(c2ccccc2F)CC1,748
2,O=C(NCCc1ccccc1)C1CCN(C(=O)C2Sc3ccccc3NC2=O)CC1 (configuration not stated),740
3,CCOc1ccc(NC(=O)C2CCN(S(=O)(=O)c3ccc4c(c3)NC(=O)C(CC)O4)CC2)cc1 (configuration not stated),888
4,O=C(C1CCN(S(=O)(=O)c2ccc3[nH]c(=O)ccc3c2)CC1)N1CCN(c2ccccc2F)CC1,754
5,O=C(c1cnn2c(-c3ccc4c(c3)OCO4)ccnc12)N1CCN(c2ccccn2)CC1,598
6,COc1ccc(CC(=O)Nc2c3c(nn2-c2ccc([N+](=O)[O-])cc2)CSC3)cc1OC,777
7,COc1ccc(-c2nocc2CCC(=O)O)cc1,712
8,CSc1nc2ccc(NC(=O)c3ccc(N4C(=O)CCC4=O)cc3)cc2s1,730
9,Fc1ccc(F)c(Cn2cccc2-c2nc(-c3ccncc3)no2)c1,1130
10,CCOc1cccc(-c2noc(Cn3ccnc3)n2)c1,635
11,O=C(C1CCCN1c1nnc(N2CCCC2=O)s1)N1CCN(c2ccccn2)CC1 (configuration not stated),547
12,O=C(Cc1ccccc1)Nc1cccc(C(=O)Nc2ccccc2C(=O)O)c1,830
13,CN1CCN(CCCNC(=O)c2cc3occc3c(Nc3ccc(Cl)cc3)n2)CC1,620
14,CS(=O)(=O)N1CCN(CCNC(=O)NCc2cccc3ccccc23)CC1,570
15,COc1ccccc1-c1noc(CN2C(=O)COc3cc(Cl)ccc32)n1,974
16,CCN1C(=O)c2cc(S(=O)(=O)Nc3ccc(F)cc3C)ccc2Oc2cccnc21,1010
17,O=S(=O)(c1cc(-c2nnc(C3CCC3)o2)co1)N1CCN(c2cccc(Cl)c2)CC1,1120
18,O=C(NCCN1CCc2ccccc2C1)C1CCN(c2nnc3ccccn23)CC1,563

# More lines, now with the values ahead:
row,RP-LC retention time [s],Structure (SMILES)
1,867,Cc1ccc(-n2nc(C)c3sc(N4CCCC(C(=O)NCc5ccc(N(C)C)cc5)C4)nc32)cc1 (configuration not stated)
2,803,Cc1nnc(-c2cn(CC(=O)NCCC3=CCCCC3)c3ccccc23)o1
3,612,CNC(=O)[C@@H]1CN(C(=O)c2ccoc2C)C[C@H]1c1nc(C)no1
4,618,O=C(NCc1ccc(Br)cc1)C1CCN(C(=O)c2cc(-c3ccncc3)n[nH]2)CC1
5,689,COCCN1C(=O)c2cccn2CC1CNC(=O)c1sccc1C (configuration not stated)
6,579,Cn1cnc(C(=O)N2CC(c3nc(CCOCC4CCOCC4)no3)C2)c1
7,844,CC(=O)[C@@]1(O)CC[C@H]2[C@@H]3C[C@H](C)C4=CC(=O)C=C[C@]4(C)[C@@]3(F)[C@@H](O)C[C@@]21C
8,901,CCN(CC)C(=O)c1cnc2snc(C)c2c1N1CCC(C(=O)Nc2c(C)cc(C)cc2C)CC1
9,712,CC(C)(C)C(=O)N1CCC(C(=O)NCc2ccc3c(c2)OCO3)CC1
10,1200,O=C(Cc1cccc(F)c1)N1CCCC1c1nc(-c2ccccc2Cl)no1 (configuration not stated)
11,1250,CC(=O)Nc1cc(C(=O)N2CCN(c3cc(C)ccc3C)CC2)c2ccc(C)nc2c1
12,775,Cc1nn(C(C)C)c(C)c1S(=O)(=O)N1CCN(C(=O)c2ccsc2)CC1
13,1200,CCc1ccc(N2CC(c3noc(-c4ccc(Cl)cc4)n3)CC2=O)cc1 (configuration not stated)
14,718,CC(C)CCn1c(CN(C)C(=O)c2ccco2)nc2ccccc21
15,688,CCOC(=O)c1ccc(NC(=O)NCC2CCN(Cc3ccc(C)cc3)C2)cc1 (configuration not stated)
16,598,COc1ccc(N2CCN(C(=O)c3cn4c(n3)COCC4)CC2)cc1
17,693,FC1(c2nc(Cc3ccccc3)no2)CCN(Cc2ccoc2)CC1
18,800,CCCCc1ccc(NC(=O)CSc2ccc(N3CCCC(C(=O)NC4CC4)C3)nn2)cc1 (configuration not stated)
19,650,Cc1noc(C)c1CCC(=O)N1CCN(c2c(C)nn(C3CCS(=O)(=O)C3)c2C)CC1 (configuration not stated)
20,653,Cc1ncsc1CN1CCC(Oc2ccccc2-c2nc(C3CC3)no2)C1 (configuration not stated)
21,823,Cc1nnc(C2CCCN(C(=O)c3cc(C(F)(F)F)cc(C(F)(F)F)c3)C2)s1 (configuration not stated)
22,904,COc1ccc(-c2nc(C3CC(=O)N(c4ccc(OC)cc4)C3)no2)cc1 (configuration not stated)
23,906,Cc1noc(-c2ccc(OC3CN(C(=O)CC4CCCC4)C3)cc2)n1
24,1130,CCCn1cc(C(=O)NCc2cccc(C)c2)c(S(=O)(=O)N2CCC(C)CC2)n1
25,932,CCc1nc(-c2cc(S(=O)(=O)N3CCC(C(=O)NCc4ccco4)CC3)c(C)s2)no1
26,809,CNc1oc(-c2ccco2)nc1S(=O)(=O)c1ccc(F)cc1
27,730,Cc1ccc2nc(N3CCN(c4ccccc4F)CC3)c(-c3noc(C)n3)cc2c1
28,826,COc1ccc(C2(C(=O)N3C[C@H]4C[C@H](C3)[C@H]3CCCC(=O)N3C4)CCCCC2)cc1
29,608,CC(C)NC(=O)Cn1cnc2nc(N3CCCC(C(=O)NC4CC4)C3)sc2c1=O (configuration not stated)
